# Laboratory results as given in patent publication US12239643B2, “Therapeutic agent for inflammatory diseases, autoimmune diseases, fibrotic diseases, and cancer diseases” (MEIJI SEIKA PHARMA CO., LTD., priority 2018, dated 2025).
# System: PDE4
# Test: Evaluation of PDE4 inhibitory activity, scintillation proximity assay
# Type: biochemical
# Details: scintillation proximity assay; class symbols of Evaluation 1; read-out: PDE4 Inhibitory Activity (concentration for the inhibition rate of 50%, IC50), Evaluation 1
# Summary of the method: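 SPA with [2,8-3H]-cAMP and diluted PDE4 enzyme preparation in 50 mM Tris-HCl pH 7.4, 8.3 mM MgCl2, 1.7 mM EGTA, 3 mg/mL BSA, 120 min at room temperature. Product captured on ZnSO4-containing YSi-SPA beads, scintillation counted; IC50 from inhibition curves vs DMSO control and no-enzyme blank.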
row,Compound,IC50
1,"CCOC(=O)c1ccc(-c2nccs2)c2oc(N3CC4CC(C3)N4)nc12 [Example 113, ethyl 2-(3,6-diazabicyclo[3.1.1]heptan-3-yl)-7-(thiazol-2-yl)benzo[d]oxazole-4-carboxylate]",< 0.1 µM
2,"CC(O)(c1ccc(-c2nccs2)c2oc(N3CC4CC(C3)N4)nc12)C(F)F (stereo not drawn) [Example 126, 2-(2-(3,6-Diazabicyclo[3.1.1]heptan-3-yl)-7-(thiazol-2-yl)benzo[d]oxazol-4-yl)-1,1-difluoropropan-2-ol]",< 0.1 µM
3,"CC(C)c1cc(-c2nccs2)c2oc(N3CC4CC(C3)N4)nc2c1 [Example 22, 2-(3,6-Diazabicyclo[3.1.1]heptan-3-yl)-5-isopropyl-7-(thiazol-2-yl)benzo[d]oxazole]",< 0.1 µM
4,"FC(F)(F)Oc1ccc(-c2nccs2)c2oc(N3CC4CCC(C3)N4)nc12 [Example 28, 2-(3,8-Diazabicyclo[3.2.1]octan-3-yl)-7-(thiazol-2-yl)-4-(trifluoromethoxy)benzo[d]oxazole]",< 0.1 µM
5,"Oc1ccc(-c2nccs2)c2oc(N3CC4CCC(C3)N4)nc12 [Example 78, 2-(3,8-Diazabicyclo[3.2.1]octan-3-yl)-7-(thiazol-2-yl)benzo[d]oxazol-4-ol]",< 0.1 µM
6,"CC(C)(O)c1cc(-c2nccs2)c2oc(N3CC4CCCC(C3)N4)nc2c1C(F)(F)F [Example 166, 2-(2-(3,9-Diazabicyclo[3.3.1]nonan-3-yl)-7-(thiazol-2-yl)-4-(trifluoromethyl)benzo[d]oxazol-5-yl)propan-2-ol]",< 0.1 µM
7,"CC(C)Oc1cc(-c2nccs2)c2oc(N3CC4CCC(C3)N4)nc2c1 [Example 68, 2-(3,8-Diazabicyclo[3.2.1]octan-3-yl)-5-isopropoxy-7-(thiazol-2-yl)benzo[d]oxazole]",< 0.1 µM
8,"CCOC(=O)c1cc(-c2nccs2)c2oc(N3CC4CCCC(C3)N4)nc2c1 [Example 89, Ethyl 2-(3,9-diazabicyclo[3.3.1]nonan-3-yl)-7-(thiazol-2-yl)benzo[d]oxazole-5-carboxylate]",< 0.1 µM
9,"OCCOC(c1cc(-c2nccs2)c2oc(N3CC4CCC(C3)N4)nc2c1)C(F)(F)F (stereo not drawn) [Example 149, 2-(1-(2-(3,8-Diazabicyclo[3.2.1]octan-3-yl)-7-(thiazol-2-yl)benzo[d]oxazol-5-yl)-2,2,2-trifluoroethoxy)ethan-1-ol]",< 0.1 µM
10,"CN(C)Cc1cc(-c2nccs2)c2oc(N3CC4CCC(C3)N4)nc2c1 [Example 169, 1-(2-(3,8-Diazabicyclo[3.2.1]octan-3-yl)-7-(thiazol-2-yl)benzo[d]oxazol-5-yl)-N,N-dimethylmethanamine]",< 0.1 µM
11,"CS(=O)(=O)c1cc(-c2nccs2)c2oc(N3CC4CC(C3)N4)nc2c1 [Example 46, 2-(3,6-Diazabicyclo[3.1.1]heptan-3-yl)-5-(methylsulfonyl)-7-(thiazol-2-yl)benzo[d]oxazole]",< 0.1 µM
12,"FC(F)(F)c1c(Cl)cc(-c2nccs2)c2oc(N3CC4CCC(C3)N4)nc12 [Example 20, 2-(3,8-Diazabicyclo[3.2.1]octan-3-yl)-5-chloro-7-(thiazol-2-yl)-4-(trifluoromethyl)benzo[d]oxazole]",< 0.1 µM
13,"COCCOC(c1cc(-c2nccs2)c2oc(N3CC4CCC(C3)N4)nc2c1)C(F)(F)F (stereo not drawn) [Example 147, 2-(3,8-Diazabicyclo[3.2.1]octan-3-yl)-7-(thiazol-2-yl)-5-(2,2,2-trifluoro-1-(2-methoxyethoxy)ethyl)benzo[d]oxazole]",< 0.1 µM
14,"FC(F)(F)c1c(Cl)cc(-c2ccccn2)c2oc(N3CC4CC(C3)N4)nc12 [Example 13, 2-(3,6-Diazabicyclo[3.1.1]heptan-3-yl)-5-chloro-7-(pyridin-2-yl)-4-(trifluoromethyl)benzo[d]oxazole]",< 0.1 µM
15,"CCOC(=O)c1cc(-n2cccn2)c2oc(N3CC4CCC(C3)N4)nc2c1 [Example 90, Ethyl 2-(3,8-diazabicyclo[3.2.1]octan-3-yl)-7-(1H-pyrazol-1-yl)benzo[d]oxazole-5-carboxylate]",0.1 to 1 µM
16,"COc1cc(-c2nccs2)c2oc(N3CC4CCC(C3)N4)nc2c1 [Example 60, 2-(3,8-Diazabicyclo[3.2.1]octan-3-yl)-5-methoxy-7-(thiazol-2-yl)benzo[d]oxazole]",< 0.1 µM
17,"COc1ccc(-c2nccs2)c2oc(N3CC4CCCC(C3)N4)nc12 [Example 77, 2-(3,9-Diazabicyclo[3.3.1]nonan-3-yl)-4-methoxy-7-(thiazol-2-yl)benzo[d]oxazole]",< 0.1 µM
18,"COc1cc(-c2nccs2)c2oc(N3CC4CC(C3)N4)nc2c1 [Example 61, 2-(3,6-Diazabicyclo[3.1.1]heptan-3-yl)-5-methoxy-7-(thiazol-2-yl)benzo[d]oxazole]",< 0.1 µM
19,"FC(F)(F)Oc1c(Cl)cc(-c2ccccn2)c2oc(N3CC4CCC(C3)N4)nc12 [Example 7, 2-(3,8-Diazabicyclo[3.2.1]octan-3-yl)-5-chloro-7-(pyridin-2-yl)-4-(trifluoromethoxy)benzo[d]oxazole]",< 0.1 µM
20,"OC(c1cc(-c2nccs2)c2oc(N3CC4CCC(C3)N4)nc2c1)C(F)(F)F (stereo not drawn) [Example 138, 1-(2-(3,8-Diazabicyclo[3.2.1]octan-3-yl)-7-(thiazol-2-yl)benzo[d]oxazol-5-yl)-2,2,2-trifluoroethan-1-ol]",< 0.1 µM
21,"CC(=O)Nc1ccc(-c2nccs2)c2oc(N3CC4CC(C3)N4)nc12 [Example 35, N-(2-(3,6-diazabicyclo[3.1.1]heptan-3-yl)-7-(thiazol-2-yl)benzo[d]oxazol-4-yl)acetamide]",0.1 to 1 µM

# Same assay, conditions: scintillation proximity assay; read-out: PDE4 Inhibitory Activity (Evaluation 1; concentration for the inhibition rate of 50%)
row,Compound,IC50
1,"CC(C)(O)c1cc(-c2nccs2)c2oc(N3CC4CC(C3)N4)nc2c1OC(F)(F)F [Example 196, 2-(2-(3,6-Diazabicyclo[3.1.1]heptan-3-yl)-7-(thiazol-2-yl)-4-(trifluoromethoxy)benzo[d]oxazol-5-yl)propan-2-ol]",< 0.1 µM
2,"CC(C)(O)c1ccc(-c2nccs2)c2oc(N3CC4CCC(C3)N4)nc12 [Example 247, 2-(2-(3,8-Diazabicyclo[3.2.1]octan-3-yl)-7-(thiazol-2-yl)benzo[d]oxazol-4-yl)propan-2-ol]",< 0.1 µM
3,"OC(c1ccc(-c2nccs2)c2oc(N3CC4CCC(C3)N4O)nc12)C(F)(F)F (stereo not drawn) [Example 378, 3-(7-(Thiazol-2-yl)-4-(2,2,2-trifluoro-1-hydroxyethyl)benzo[d]oxazol-2-yl)-3,8-diazabicyclo[3.2.1]octan-8-ol]",0.1 to 1 µM
4,"CC(O)C(F)(F)Oc1ccc(-c2nccs2)c2oc(N3CC4CC(C3)N4)nc12 (racemic) [Example 250, 1-((2-(3,6-Diazabicyclo[3.1.1]heptan-3-yl)-7-(thiazol-2-yl)benzo[d]oxazol-4-yl)oxy)-1,1-difluoropropan-2-ol]",< 0.1 µM
5,"CCOC(=O)c1cc(-c2nccs2)c2oc(N3CC4CC(C3)N4)nc2c1OC(F)(F)F [Example 187, Ethyl 2-(3,6-diazabicyclo[3.1.1]heptan-3-yl)-7-(thiazol-2-yl)-4-(trifluoromethoxy)benzo[d]oxazole-5-carboxylate]",< 0.1 µM
6,"CN(CCO)S(=O)(=O)c1ccc(-c2nccs2)c2oc(N3CC4CC(C3)N4)nc12 [Example 389, 2-(3,6-Diazabicyclo[3.1.1]heptan-3-yl)-N-(2-hydroxyethyl)-N-methyl-7-(thiazol-2-yl)benzo[d]oxazole-4-sulfonamide]",< 0.1 µM
7,"O=C(O)c1ccc(-c2nccs2)c2oc(N3CC4CC(C3)N4)nc12 [Example 366, 2-(3,6-Diazabicyclo[3.1.1]heptan-3-yl)-7-(thiazol-2-yl)benzo[d]oxazole-4-carboxylic acid]",0.1 to 1 µM
8,"CC(=O)c1cc(-c2nccs2)c2oc(N3CC4CCC(C3)N4)nc2c1OC(F)(F)F [Example 213, 1-(2-(3,8-Diazabicyclo[3.2.1]octan-3-yl)-7-(thiazol-2-yl)-4-(trifluoromethoxy)benzo[d]oxazol-5-yl)ethan-1-one]",< 0.1 µM
9,"CCOC(=O)c1cc(-c2nccs2)c2oc(N3CC4CCCC(C3)N4)nc2c1OC(F)(F)F [Example 188, Ethyl 2-(3,9-diazabicyclo[3.3.1]nonan-3-yl)-7-(thiazol-2-yl)-4-(trifluoromethoxy)benzo[d]oxazole-5-carboxylate]",< 0.1 µM
10,"CC(C)(O)c1cc(-c2cscn2)c2oc(N3CC4CC(C3)N4)nc2c1OC(F)(F)F [Example 288, 2-(2-(3,6-Diazabicyclo[3.1.1]heptan-3-yl)-7-(thiazol-4-yl)-4-(trifluoromethoxy)benzo[d]oxazol-5-yl)propan-2-ol]",< 0.1 µM
11,"C=CC(F)(F)Oc1ccc(-c2nccs2)c2oc(N3CC4CC(C3)N4)nc12 [Example 351, 2-(3,6-Diazabicyclo[3.1.1]heptan-3-yl)-4-((1,1-difluoroallyl)oxy)-7-(thiazol-2-yl)benzo[d]oxazole]",< 0.1 µM
12,"COC(C)c1ccc(-c2nccs2)c2oc(N3CC4CCCC(C3)N4)nc12 (stereo not drawn) [Example 243, 2-(3,9-Diazabicyclo[3.3.1]nonan-3-yl)-4-(1-methoxyethyl)-7-(thiazol-2-yl)benzo[d]oxazole]",< 0.1 µM
13,"CC(C)(O)C1CC(Oc2ccc(-c3nccs3)c3oc(N4CC5CC(C4)N5)nc23)C1 (stereo not drawn) [Example 267, 2-(3-((2-(3,6-Diazabicyclo[3.1.1]heptan-3-yl)-7-(thiazol-2-yl)benzo[d]oxazol-4-yl)oxy)cyclobutyl)propan-2-ol]",< 0.1 µM
14,"CC(C)(O)c1cc(-c2nccs2)c2oc(N3CC4CCC(C3)N4O)nc2c1C(F)(F)F [Example 381, 3-(5-(2-Hydroxypropan-2-yl)-7-(thiazol-2-yl)-4-(trifluoromethyl)benzo[d]oxazol-2-yl)-3,8-diazabicyclo[3.2.1]octan-8-ol]",> 1 µM
15,"OC1(COC(c2ccc(-c3nccs3)c3oc(N4CC5CC(C4)N5)nc23)C(F)(F)F)CC1 (stereo not drawn) [Example 232, 1-((1-(2-(3,6-Diazabicyclo[3.1.1]heptan-3-yl)-7-(thiazol-2-yl)benzo[d]oxazol-4-yl)-2,2,2-trifluoroethoxy)methyl)cyclopropan-1-ol]",< 0.1 µM
